Data published in patent publication US20240408064A1, “RAS INHIBITORS, COMPOSITIONS AND METHODS OF USE THEREOF” (GENETOLEAD INC., priority 2021, published 2024).
pKd: −log10 of the molar value. Where “and” joins values, the source holds several entries; their conditions need not be identical. Equal entries are not always repeated.

Key:
Type in all cases: binding
HRas^G12V [1] = target: T1, HRas^G12V (Homo sapiens (Human), UniProt P01112, G12V); test: 19F T2-CPMG NMR score
Summary of the method: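 In the T2-CPMG experiment, echo spacing was 1 ms and total delays ranged over eight values from 1 to 800 ms. Both scores come from 600 MHz NMR of 50 μM HRas G12V mixed with fragment pools at 240 μM each, in phosphate buffer pH 7.4 with NaCl, MgCl2 and TCEP-d16. Ligand-observed 19F spectra were recorded with 1H decoupling, 64 scans and a 5 s relaxation delay.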

HRas^G12V [2] = target: T1, HRas^G12V; test: Dissociation constant by ITC
Experimental: ITC experiments were performed using a Nano ITC isothermal titration calorimeter from TA Instruments. Experiments were performed in reverse-mode by titrating 50 μL of protein solution at a concentration of 300-600 μM into 350 μL of ligand solution at concentrations between 10-50 μM. Stir rate was 200-250 rpm with 16-25 injections, each at 2-3 μL with 150 seconds between each injection. Data fitting was performed using Nano ITCRun software.

wild type HRAS [3] = target: T2, wild type HRAS (Homo sapiens (Human), UniProt P01112); test: 19F DLB score, wild type HRAS
Experimental: (§1) Since the fragment library was curated using phosphate buffer, 25 mM sodium phosphate pH 7.4, 150 mM NaCl, 5 mM MgCl2, 1 mM TCEP-d16, 10% D2O Fresh TCEP was used for experiments. Screening was performed using ^1H-decoupled 1D ^19F experiment Bruker experiment (zgfhigqn.2) with 64 scans and a relaxation delay of 5 seconds. 50 μM HRas^G12V and 240 μM of each fragment in pools (mixtures) were used.
(§2) Hit confirmation was performed using the same ^19F experiment as the screen. Ligand-observed 1D ^1H, protein-observed 1D ^1H, ^1H T2-CPMG as well as Saturation Transfer Difference (STD) experiments were also run on the same samples. Ligand-observed 1D ^1H was run using the standard Bruker sequence with excitation sculpting (zgesgp) with a relaxation delay of 10 seconds and 16 scans per spectrum. Protein-observed 1D ^1H was performed using the same sequence with a relaxation delay of 1 second and 256 scans in order to increase the signal-to-noise of the protein resonances, while keeping the experimental time relatively short. The ^1H T2-CPMG experiment employed a modified version of the Bruker 1D ^1H zgesgp experiment with the addition of a CPMG pulse train after the first 90° excitation pulse. Total duration for each spin echo was fixed at 1 ms (τ=500 μs), while the number of echoes in the pulse train was varied according to the total time (T). The number of scans for each spectrum was 4 and eight delay times were run on each sample, ranging from 1 ms to 800 ms.
(§3) The activity of compounds of the invention regarding wild type HRAS was measured in the same as in Example 80. The results obtained with the compounds in the various assays described above are depicted in Table 2.

wild type HRAS [4] = target: T2, wild type HRAS; test: 19F T2-CPMG score, wild type HRAS
Experimental: as §1, §2, §3

KRAS^G12D-GDP [5] = target: T3, KRAS^G12D-GDP (Homo sapiens (Human), UniProt P01116, G12D); test: 19F DLB score, KRAS^G12D-GDP; set-up: scale not given here
Experimental: as §1, §2
(§4) The activity of compounds of the invention regarding KRAS^G12D-GDP was measured in the same as in Example 80. The results obtained with the compounds in the various assays described above are depicted in Table 23.

KRAS^G12D-GDP [6] = target: T3, KRAS^G12D-GDP; test: Overall activity in the various assays, KRAS^G12D-GDP
Experimental: as §4

KRAS^G12D-GDP [7] = target: T3, KRAS^G12D-GDP; test: NMR Kd, KRAS^G12D-GDP; conditions: 1H 1D protein-observed NMR, read-out: 1H 1D PO NMR Kd
Experimental: (§5) ^1H/^15N Fast-HSQC experiments (Mori et al., Journal of Magnetic Resonance, Series B, Volume 108, Issue 1, July 1995, Pages 94-98) were recorded at a protein concentration of 50-100 μM.
(§6) Dissociation constants were obtained by monitoring changes in chemical shifts as a function of ligand concentration. The changes in chemical shifts (d) were calculated according to the following equation (Williamson, Progress in Nuclear Magnetic Resonance Spectroscopy, Volume 73, August 2013, Pages 1-16): d=√(1/2[δ_H^2+[…]]), Where δ are the changes in chemical shift in ppm for ^1H and ^15N and the correction factor (α) was set at 0.15.
(§7) ^1H 1D protein-observed experiments were recorded with 15-50 μM protein. The standard Bruker 1D ^1H sequence with excitation sculpting (zgesgp) was employed. A relaxation delay of 1 s was employed in order to use 256 scans while still keeping experimental time fairly short. Changes in protein chemical shift or peak intensity in the methyl region were monitored against compound concentration.
as §4

wild type HRAS [8] = target: T2, wild type HRAS; test: NMR Kd, wild type HRAS
Experimental: as §5, §6, §7, §3

T1 sequence (P01112 1-166 G12V): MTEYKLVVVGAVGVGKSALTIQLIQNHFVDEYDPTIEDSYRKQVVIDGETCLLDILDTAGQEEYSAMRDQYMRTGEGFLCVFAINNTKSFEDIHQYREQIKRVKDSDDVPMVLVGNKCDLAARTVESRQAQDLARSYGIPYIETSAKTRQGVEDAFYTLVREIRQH
T2 sequence (P01112 whole entry, the tested form may be a part): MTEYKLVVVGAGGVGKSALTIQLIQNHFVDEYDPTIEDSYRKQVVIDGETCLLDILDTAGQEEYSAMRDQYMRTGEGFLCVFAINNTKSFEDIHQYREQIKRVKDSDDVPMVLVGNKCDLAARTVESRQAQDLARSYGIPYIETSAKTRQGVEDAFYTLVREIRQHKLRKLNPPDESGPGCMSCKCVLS

## CN(C)CC(=O)Nc1cccc(NC(=O)Cc2c[nH]c3cc(F)ccc23)c1 [compound 10097]
HRas^G12V [1]
  19F T2-CPMG Score: 38.49
HRas^G12V [2]
  pKd: 3.80 to 4.77
Wild type HRAS [3]
  19F DLB Score: 7.61
Wild type HRAS [4]
  19F T2-CPMG Score: <LLOQ
KRAS^G12D-GDP [5]
  19F DLB Score: 4.36

## CN(C)CCOc1cccc(NC(=O)Cc2c[nH]c3cc(F)ccc23)c1 [Compound 10095, N-(3-(2-(dimethylamino)ethoxy)phenyl)-2-(6-fluoro-1H-indol-3-yl)acetamide]
HRas^G12V [1]
  19F T2-CPMG Score: 33.38
Wild type HRAS [3]
  19F DLB Score: 4.57
Wild type HRAS [4]
  19F T2-CPMG Score: <LLOQ
KRAS^G12D-GDP [5]
  19F DLB Score: 3.56

## O=C(Cc1c[nH]c2cc(F)ccc12)N1CCC(O)CC1 [Compound 10086]
HRas^G12V [1]
  19F T2-CPMG Score: 32.13
KRAS^G12D-GDP [6]
  Activity ranking on KRAS^G12D-GDP (in words): most active
KRAS^G12D-GDP [7]
  pKd: 2.39 to 2.72
KRAS^G12D-GDP [5]
  19F DLB Score: 3.33

## CC(C)N1CCC(NC(=O)Cc2c[nH]c3cc(F)ccc23)CC1 [Compound 10018]
Wild type HRAS [8]
  pKd: 2.29
HRas^G12V [1]
  19F T2-CPMG Score: 10.62 and 11.88 and 18.24 and 9.37 and 15.13
KRAS^G12D-GDP [6]
  Activity ranking on KRAS^G12D-GDP (in words): most active
KRAS^G12D-GDP [7]
  pKd: 2.20 to 2.30
KRAS^G12D-GDP [5]
  19F DLB Score: 1.73
